Assay results taken from US20100029012A1, “Method for identifying modulators of the NRF2-KEAP1-AREP pathway” (priority 2006, published 2010).

What was measured:
[1] = system: His tagged Green Fluorescent Protein (GFP); conditions: relative to DMSO; FIG. 3
Experimental: In this assay, His tagged Green Fluorescent Protein (GFP) retention on a divalent metal cation surface is monitored in the presence of analytes.
Stock solutions containing analytes at various concentrations or 500 nL DMSO and controls are transferred into the wells of a CHOICECOAT metal chelate white 384 well plates (Catalog No. NC15140, Pierce Biotechnology, Inc.). The volume is 500 nL per well. Controls include 100 μM unlabeled Peptide 2 and 0.5% DMSO.
An assay solution containing one μg His tagged GFP protein in PBS (per well) is prepared and 50 μL of this assay solution is dispensed into each well of the 384 well plates. The plates are covered and incubated at room temperature for two hours. Following the room temperature incubation, the plates are cooled by incubating in a 4° C. refrigerator for one hour. The plates are then washed by aspirating the well, adding 80 uL of PBS-T, aspirating the well, adding 80 uL of PBS-T, and aspirating the well.

[2] = molecular target: T1, His-tagged Keap1-kelch domain polypeptide (Homo sapiens, UniProt Q14145); assay: Antibody-based binding assay, displacement of 3H-labeled Nrf2 Peptide 2; conditions: Keap1-kelch domain polypeptide immobilized via anti-His tag antibody; about 1 nm to about 100 μM; FIG. 2
T1 construct: the Keap1-kelch domain polypeptide comprises amino acid residues 322 to 609 of the human Keap1 protein; made in house; host or cells: E. coli Rosetta2 BL21 pLysS, plasmid pET15b-Keap1-kelch domain
Excerpt: This example provides a protocol for an antibody-based binding assay for identifying activators of the Nrf2-Keap1 system. Because Keap1 protein's or Keap1-kelch domain polypeptide's binding to the assay plate surface is not dependent on divalent metal cations such as nickel, the antibody-based assay is also useful for determining whether the competitive effect observed in an ion-based assay was a result of the analyte competing with binding of the labeled Peptide 2 with the Keap1-kelch domain or with the binding of the Keap1 protein or Keap1-kelch domain polypeptide with divalent cations on the plate. In general, the assay is performed as follows.
One μg/mL of mouse-derived anti-His tag antibody (Catalog No. 35370, Quiagen, Valencia, Calif.) is added to anti-mouse IgG-coated white plates (Catalog No. 15234, Pierce Biotechnology, Inc.) and incubated at room temperature for two hours. The plate is then washed with four chamber volumes of PBS to remove any excess antibody.
Controls include […] unlabeled Nrf2 Peptide 2 and 0.5% DMSO.
During the last 15 minutes of the 4° C. incubation, one L of cold PBS-T is added to the Liquid 1 wash bottle of the EMBLA 96/384 plate washer (Molecular Devices Corporation, Sunnyvale, Calif.). The instrument is primed using program ‘A1’ a minimum of three times. […]

[3] = molecular target: T2, recombinant human His-tagged Keap1-kelch domain polypeptide (human, UniProt Q14145 322-609); assay: method not stated; binding affinity for the kelch domain
T2 construct: domain: kelch domain; Expressed in E. coli from pET15b between NdeI and BamHI; also called recombinant Keap1-kelch domain; kelch domain of the Keap1 protein; not shown: N-terminal six-histidine tag from vector pET15b
T2 sequence (Q14145 322-609): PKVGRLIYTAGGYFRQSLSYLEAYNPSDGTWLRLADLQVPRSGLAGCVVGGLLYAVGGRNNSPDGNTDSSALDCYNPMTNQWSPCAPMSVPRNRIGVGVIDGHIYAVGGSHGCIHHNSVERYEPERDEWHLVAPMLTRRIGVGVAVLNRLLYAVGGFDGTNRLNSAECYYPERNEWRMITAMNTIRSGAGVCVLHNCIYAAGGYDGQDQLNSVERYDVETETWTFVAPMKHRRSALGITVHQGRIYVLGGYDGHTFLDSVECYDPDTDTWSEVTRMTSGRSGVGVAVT

T1 sequence (Q14145 322-609): as above

CC[C@H](C)[C@H](NC(=O)[C@@H]1CCCN1C(=O)[C@H](CC(C)C)NC(=O)[C@H](Cc1ccccc1)NC(=O)[C@H](CCC(=O)O)NC(=O)CNC(=O)[C@@H](NC(=O)[C@H](CCC(=O)O)NC(=O)[C@H](CCC(=O)O)NC(=O)[C@H](CC(=O)O)NC(=O)[C@H](CC(C)C)NC(=O)[C@H](CCC(N)=O)NC(=O)[C@@H](N)CC(C)C)[C@@H](C)O)C(=O)N[C@@H](CCC(N)=O)C(=O)O [Peptide 2, NH2-LQLDEETGEFLPIQ-OH]
percent inhibition of binding of the GFP to the nickel on the surface of the plate [1]: 0%
competition with labeled Peptide 2 for binding to the kelch domain (result in words) [2]: result from this assay expected for an analyte that competes

LLVDGETGESFPAQ [Nrf1 peptide LLVDGETGESFPAQ]
binding affinity [3]: ~397 nM

RKRNVESGEEELAS [Pgam5 peptide RKRNVESGEEELAS]
binding affinity [3]: ~626 nM
